Laboratory results taken from patent publication US4263291A, “3,7-Disubstituted-3-cephem-4-carboxylic acid compounds and processes for the preparation thereof” (Fujisawa Pharmaceutical Co., Ltd., priority 1976, dated 1981).
In brackets after ≈: the same amount, converted by molar mass. Like-named read-outs stand apart in the source and are kept apart here.

Experiments:
Assay in all cases: In vitro antibacterial activity, two-fold agar-plate dilution method
Assay type in all cases: cell-based
Sal. enteritidis = details: Salmonella enterica, HI-agar, 37° C., 20 hours, read-out: MIC (minimal inhibitory concentration)
Experimental: (§1) In vitro antibacterial activity was determined by the two-fold agar-plate dilution method as described below.
(§2) One loopful of an overnight culture of each test strain in Trypticase-soy broth (10^8 viable cells per ml.) was streaked on heart infusion agar (HI-agar) containing graded concentrations of antibiotics, and the minimal inhibitory concentration (MIC) was expressed in terms of μg/ml. aft er incubation at 37° C. for 20 hours.

Staph. aureus 209P JC-1 = details: Staphylococcus aureus, read-out: MIC (minimal inhibitory concentration)
Experimental: as §1, §2

Sh. flexneri 2a = details: Shigella flexneri, HI-agar, 37° C., 20 hours, read-out: MIC (minimal inhibitory concentration)
Experimental: as §1, §2

E. coli NIHJ JC-2 = details: Escherichia coli, read-out: MIC (minimal inhibitory concentration)
Experimental: as §1, §2

[1] = Staph. aureus 209P JC-1, HI-agar, 37° C., 20 hours
[2] = NIHJJC2, E. coli NIHJ JC-2, HI-agar, 37° C., 20 hours

| Structure (SMILES) | MIC (Sal. enteritidis) [µg/mL] | MIC (Staph. aureus 209P JC-1; [1]) [µg/mL] | MIC (Sh. flexneri 2a) [µg/mL] | MIC (E. coli NIHJ JC-2; [2]) [µg/mL] | MIC (Staph. aureus 209P JC-1; 209P, 20 h) [µg/mL] | MIC (E. coli NIHJ JC-2; NIHJJC2, 20 h) [µg/mL] |
| --- | --- | --- | --- | --- | --- | --- |
| CO/N=C(\C(=O)NC1C(=O)N2C(C(=O)O)=C(CSc3nnnn3C)CSC12)c1csnn1 (stereo not drawn) [Test Compound (1), 7-[2-Methoxyimino-2-(1,2,3-thiadiazol-4-yl)acetamido]-3-(1-methyl-1H-tetrazol-5-yl)thiomethyl-3-cephem-4-carboxylic acid (syn isomer)] | 0.2 (≈ 0.402 µM) | 3.13 (≈ 6.29 µM) | 1.56 (≈ 3.14 µM) | 0.78 (≈ 1.57 µM) | – | – |
| CO/N=C(/C(=O)NC1C(=O)N2C(C(=O)O)=C(CSc3nnnn3C)CSC12)c1csnn1 (stereo not drawn) [Test Compound (2), 7-[2-Methoxyimino-2-(1,2,3-thiadiazol-4-yl)acetamido]-3-(1-methyl-1H-tetrazol-5-yl)thiomethyl-3-cephem-4-carboxylic acid (anti isomer)] | 6.25 (≈ 12.6 µM) | – | 12.5 (≈ 25.1 µM) | 25 (≈ 50.2 µM) | 12.5 (≈ 25.1 µM) | – |
| Cn1nnnc1SCC1=C(C(=O)O)N2C(=O)C(NC(=O)/C(=N\O)c3cnsn3)C2SC1 (stereo not drawn) [Test Compound (3), 7-[2-Hydroxyimino-2-(1,2,5-thiadiazol-3-yl)acetamido]-3-(1-methyl-1H-tetrazol-5-yl)thiomethyl-3-cephem-4-carboxylic acid (syn isomer)] | 1.56 (≈ 3.23 µM) | 0.78 (≈ 1.61 µM) | 0.39 (≈ 0.807 µM) | 3.13 (≈ 6.47 µM) | – | – |
| Cn1nnnc1SCC1=C(C(=O)O)N2C(=O)C(NC(=O)/C(=N\O)c3cnsc3)C2SC1 (stereo not drawn) [Test Compound (4), 7-[2-Hydroxyimino-2-(isothiazol-4-yl)acetamido]-3-(1-methyl-1H-tetrazol-5-yl)thiomethyl-3-cephem-4-carboxylic acid (syn isomer)] | 0.78 (≈ 1.62 µM) | 0.39 (≈ 0.808 µM) | 0.39 (≈ 0.808 µM) | – | – | 1.56 (≈ 3.23 µM) |
